This is an account of results in patent publication US9675569B2, “Method for treating a pulmonary disease state in mammals by up regulating indigenous in vivo levels of inflammatory agents in mammalian cells” (priority 2012, dated 2017).

For experiment [1], the system named is HSV-I infected cell. Nature of the experiment: Viral plaque reduction in HSV-I infected cells. The experiment is classed as cell-based. The note with it: for viral plaque formation decreased: virally infected cells (Example 1). An excerpt:
The primary end points were the levels of IL-8 and IL-1 after treatment with an immunostimulator, pyruvate and the combination of pyruvate and α-ketoisovalerate. […] IL-8 activates neutrophils to increase their numbers at the infected site. […] IL-1 increases inflammation and decreases healing times. […] Viral plaques are a direct measure of viral numbers in infected cells.

The test system of experiment [2] is HSV-1, HSV-2 and various rhinoviruses. As to the kind of experiment: Tissue culture studies, viral plaques. The experiment is classed as cell-based. The note with it: 10-40 mM concentrations. As for the experimental part:
(§1) This medication is an anti-viral drug used to treat infants and young children who have a severe lung infection caused by a certain virus (respiratory syncytial virus-RSV). Nearly all children become infected with this virus before they are 3 years old. […] This medication is used to treat severe RSV infections that need treatment in a hospital. This medication is given by continuous inhalation, usually for 12 to 18 hours daily for 3 to 7 days or as directed by the doctor. A special machine (small-particle aerosol generator) is used to make a mist, which is then inhaled through the mouth or nose. Chest soreness may occur. Redness/irritation of the nasal cavities and eye or eyelid may also occur. When five (5) mls. of a 10 mM solution of pyruvate was used prior to the administration of this medication; the patient reported that the irritation and chest soreness was eliminated. […] Tissue culture studies with HSV-1, HSV-2 and various rhinoviruses, have shown that 10-40 mM concentrations of pyruvate reduced viral plaques by 40-60% by increasing the synthesis of various cytokines. The combination of various antivirals with pyruvate totally eliminated the virus infection in cells. The inhalation of 5.0 mls of a 20 mM solution of sodium pyruvate used by itself reduced viral infections in a patient with sinusitis by 50%.

For experiment [3], the system named is total protein, elastase, IL-6, IL-8, TNF-α. Nature of the experiment: Inhaled sodium pyruvate in cystic fibrosis safety study: sputum inflammatory biomarkers. Format: in vivo, human. The note with it: for total proteins, elastase, IL-6, IL-8, and TNF-α: CF subjects. As for the experimental part:
All of the enrolled and dosed subjects were able to provide sputum samples for analysis before and after exposure to study drug (sodium pyruvate for inhalation at 0.5, 1.5, and 5.0 mM levels). The subjects were given 5 ml samples to inhale. Specimens were of good quality for the planned assays.
Samples were divided into two main aliquots after processing. The first aliquot was left untreated to be able to assay for the activity of free elastase. The second aliquot was treated with protease inhibitors pheylmethanesulfonylfluoride (PMSF) and ethylenediamine tetraacetic acid (EDTA) to stop any degradation of the cytokines of interest (IL-6, IL-8, IL-10, IL-17, and IL-23) and total protein.
For IL-10, IL-17 and IL-23, levels on sputum were at or below the limit of detection for the assays (7, 2 and 20 pg/mL respectively). For the other markers (total protein, elastase, IL-6, IL-8, TNF-α) levels detected where within those typically found in cystic fibrosis (CF) patients.

Experiment [4] can be described thus: One week open label home-use trial of sodium pyruvate+saline nasal sprays (Example 5). Format: in vivo, human. An excerpt: Thirty-nine (39) subjects who were regular nasal spray users due to chronic sinusitis or allergic rhinitis and other sinus diseases were recruited for a one week open label, in home-use trial. Allergic rhinitis and other sinus diseases result in the elevation of certain inflammatory components and the concurrent down regulation of some other inflammatory components. When this happens, infections can occur. The ability to up-regulate these immune components helps balance the nasal immune system to inhibit infections and minimize injury to surrounding tissues. Six (6) different sodium pyruvate+saline combination nasal sprays, based on concentrations of saline and sodium pyruvate, were administered to the subjects, and each of the test products were used by at least six subjects. The subjects used the test nasal sprays at home (two to three sprays; two or three times a day) for seven days, in place of their regular nasal spray.
Prior to, and at the end of the study period, the subjects' nostrils were examined for mucosal fragility, lesions, erythema, and edema using a rhinoscope.
Thirty-eight subjects completed the study. […] The test formula ranged from 0.5 mM solutions to 20 mM solutions. […] In this case we delivered the 20 mM solution nasal solution with sodium pyruvate. […]

Experiment [5] relates to viral infections. Nature of the experiment: Inhaled sodium pyruvate in a patient with sinusitis, viral infections. Format: in vivo, human. To be noted: inhalation of 5.0 mls of a 20 mM solution, used by itself; one patient. The procedure:
as §1

In the case of `Nc1nc2c(ncn2COCCO)c(=O)[nH]1` [Acyclovir, 9-[(2-hydroxyethyloxy)methyl]guanine], the “Percentage of viral plaque reduction in virally infected cells” value in experiment [1] (Acyclovir alone, therapeutic dose) worked out at 40%. In experiment [1], the “viral plaque formation decreased” value is 60%.
As to `CC(=O)C(=O)[O-].[Na+]` [sodium pyruvate], the viral plaques reduced in experiment [2] is given as 40-60%. Also, in experiment [3] (inhalation at 0.5 mM), the “levels of TNF-α” value is given as “did not increase” and the “levels of white blood cells, elastase, IL-8, IL-6” value is “reduced”. For the same compound, the “total proteins, elastase, IL-6, IL-8, and TNF-α” value in experiment [3] (inhalation of 5 ml of 0.5 mM) is listed as “reduced”. Moreover, the “total proteins, elastase, IL-6, IL-8, and TNF-α” value in experiment [3] (inhalation of 5 ml of 5 mM or higher) is reported as “increased”. Further, the “levels of white blood cells elastase, IL-8, IL-6, IL-10 and TNF-α” value in experiment [3] (inhalation of more than 5 mM in humans) was “increased”. Besides, the “viral plaque formation decreased” value in experiment [1] is reported as 50%. Moreover, the “effectiveness rated by the patients compared to the 20-40 mM solutions” value in experiment [4] (0.5 mM to 5 mM solutions) is reported as “non-effective to less effective”. In experiment [4] (40 mM solution), the “rating by the patients” value is reported as “favorably rated”. Further, the viral infections reduced in experiment [5] was determined as 50%.
